The nature of series [1]: Thermal decomposition temperature by thermogravimetric-differential thermal analyzer TG/DTA 6200. In kind it is physicochemical. The method, then: A thermal decomposition temperature of bis-4,4′-(2-ethoxycarbonyl-1-ethenyl)-2,2′-methoxyphenoxymethane prepared in Example 1 was determined by using a thermogravimetric-differential thermal simultaneous analyzer “TG/DTA 6200” (commercially available from Seiko Instruments Inc.).
A thermal decomposition temperature of bis-4,4′-(2-2-ethyl-1-hexyloxycarbonyl-1-ethenyl)-2,2′-methoxyphenoxymethane prepared in Example 9 was determined by using a thermogravimetric-differential thermal simultaneous analyzer “TG/DTA 6200” (commercially available from Seiko Instruments Inc.).
A thermal decomposition temperature of bis-4,4′-(2-dodecyloxycarbonyl-1-ethenyl)-2,2′-methoxyphenoxymethane prepared in Example 10 was determined by using a thermogravimetric-differential thermal simultaneous analyzer “TG/DTA 6200” (commercially available from Seiko Instruments Inc.).

The conditions of series [2]: related art statement; cited from earlier work.

In turn, `CCOC(=O)C=Cc1ccc(OCOc2ccc(C=CC(=O)OCC)cc2OC)c(OC)c1` [Example 1, Bis-4,4′-(2-ethoxycarbonyl-1-ethenyl)-2,2′-methoxyphenoxymethane] yielded a thermal decomposition point in series [1] of 359 °C.
On to `COc1cc(/C=C/C(=O)O)ccc1O` [ferulic acid], for which the decomposition temperature in series [2] is 176 °C.
Regarding `CCCCCCCCCCCCOC(=O)C=Cc1ccc(OCOc2ccc(C=CC(=O)OCCCCCCCCCCCC)cc2OC)c(OC)c1` [Example 10, Bis-4,4′-(2-dodecyloxycarbonyl-1-ethenyl)-2,2′-methoxyphenoxymethane], the thermal decomposition point in series [1] worked out at 318 °C.
Same read-out and setting: then `CCCCC(CC)COC(=O)C=Cc1ccc(OCOc2ccc(C=CC(=O)OCC(CC)CCCC)cc2OC)c(OC)c1` (stereo not shown) [Example 9, Bis-4,4′-(2-2-ethyl-1-hexyloxycarbonyl-1-ethenyl)-2,2′-methoxyphenoxymethane], with 355 °C.
